Key:
Type in all cases: physicochemical
[1] = ΔE before/after UVA irradiation of dyes at 1% in a white lipstick base (Example 5); conditions: 1% by weight dye in white lipstick base; UVA 2 mW/cm^2 for two minutes
Experimental: The ΔE (before and after UV irradiation for 2 minutes) of various photochromic dyes according to the invention was determined, at 1% by weight in a white lipstick base comprising:
A composition comprising 1% of dye according to the invention and 99% of the above base is thus prepared.
(§1) The L, a and b measurements were performed on a Leneta brand contrast card of reference Form 1A Penopac, for a composition spread to a thickness of 50 microns.
(§2) The reflection measurements were performed using a Minolta 3700D spectrocolorimeter.
(§3) The initial trichromatic coordinates of the composition before irradiation (L0, a0 and b0) were thus determined.
(§4) The compositions were then subjected to a UV irradiation (flux of 2 mW/cm^2 of a UVA radiation) for two minutes and then, immediately after stopping the irradiation, the trichromatic coordinates after irradiation (L, a and b) were determined. Less than 5 seconds elapsed between the stopping of the irradiation and the determination of the new coordinates.
(§5) The ΔE was then calculated in the following manner: ΔE=[(L−L0)^2+(a−a0)^2+(b−b0)^2]^1/2

[2] = ΔE before/after UVA irradiation of wax-structured compositions, 50 micron film on contrast card, reflection (Examples 3 and 8)
Experimental: as §1, §2
The initial trichromatic coordinates of the composition before irradiation (L0, a0 and b0) were thus determined. The composition was then subjected to a UV irradiation (flux of 2 mW/cm^2 of a UVA radiation) for two minutes and then, immediately after stopping the irradiation, the trichromatic coordinates after irradiation (L, a and b) were determined. Less than 5 seconds elapsed between the stopping of the irradiation and the determination of the new coordinates.
The ΔE was then calculated in the following manner: ΔE=[(L−L0)^2+(a−a0)^2+(b−b0) ^2]^1/2
A composition was prepared, comprising: • 0.05% by weight of 3-phenyl-3-(4-piperidinophenyl)-6-morpholino-3H-naphtho[2,1-b]pyran (Reversacol Ruby from James Robinson), • 15% by weight of polyethylene wax (apolar wax), • qs 100% of phenylsilicone oil (DC556 from Dow Corning).
as §3
as §4, with “composition was” for “compositions were”
as §5
15% by weight of polyethylene wax (apolar wax) was added to the mixtures prepared in Example 6 (oils+0.05% by weight of Reversacol Ruby dye), and the trichromatic coordinates L, a and b were then measured, before and after irradiation with UV for 2 minutes (flux of 2 mW/cm^2 of UVA) on thin films of composition, 50 microns thick, poured onto a contrast card.
To do this, a Minolta 3700D spectrocolorimeter in reflection mode was used; less than 5 seconds elapsed between stopping the irradiation and determining the new coordinates.

[3] = Visual colour change of the dye solution in phenylsilicone oil on UV (sunlight) irradiation (Example 2); conditions: 0.05% by weight in phenylsilicone oil DC556
Experimental: A solution comprising 0.05% by weight of 3-phenyl-3-(4-piperidinophenyl)-6-morpholino-3H-naphtho[2,1-b]pyran (Reversacol Ruby from James Robinson) in a phenylsilicone oil (DC556 from Dow Corning) was prepared. The mixture was then irradiated with UV (sunlight) for 2 minutes.

[4] = Solubility of the dye in various silicone oils, observed with the naked eye (Example 1)
Experimental: The term “soluble” means that the dyes form a uniform mixture, free of particles that are apparent to the naked eye, at 25° C. and 1 atmosphere, in a proportion of 0.05% by weight in the oily phase.
The solubility of a dye according to the invention in various silicone oils was studied. Several mixtures comprising 0.05% by weight of 3-phenyl-3-(4-piperidinophenyl)-6-morpholino-3H-naphtho[2,1-b]pyran (Reversacol Ruby from James Robinson) in various oils were thus prepared, and the mixture was then heated to 60° C. with stirring.

[5] = Solvatochromism: ΔE′ of oil + dye mixture versus oil alone, transmission, no UV (Example 6); parameters: key: ΔE′ = √(ΔL²+Δa²+Δb²), oil alone vs oil+dye, transmission; conditions: without UV
Experimental: The trichromatic coordinates (Lh, ah and bh) of the oil alone and of the oil+dye mixture (Lm, am and bm) were thus determined, and the ΔE′ was calculated in the following manner: ΔE′=[Lh−Lm)^2+(ah−am)^2+(bh−bm)^2]^1/2.
To do this, a Minolta 3700D spectrocolorimeter in transmission mode was used, with a plastic cuvette (“cuvette walls+oil+optional dye” optical path length=1 cm).

[6] = ΔE of oil + dye mixtures after UVA irradiation (Example 7); parameters: key: ΔE = [(Lm′−Lm)^2+(am′−am)^2+(bm′−bm)^2]^1/2, before vs after UVA; conditions: UVA 2 mW/cm^2 for 2 minutes
Experimental: The mixtures prepared in Example 6 were irradiated with UV (flux of 2 mW/cm^2 of UVA) for 2 minutes.
The trichromatic coordinates of the mixture after irradiation (Lm′, am′ and bm′) were again determined, as in Example 2, and the ΔE was calculated in the following manner: ΔE=[(Lm′−Lm)^2+(am′−am)^2+(bm′−bm)^2]^1/2.
Less than 5 seconds elapsed between stopping the irradiation and determining the new coordinates.

[7] = 0.05% dye in Capric/caprylic acid triglyceride
[8] = 0.05% dye in Diisostearyl malate
[9] = 0.05% dye in Hydrogenated polyisobutene
[10] = 0.05% dye in Isononyl isononanoate
[11] = 0.05% dye in Tridecyl trimellitate

COc1ccc(C2(c3ccc(OC)cc3)C=Cc3c(cc(N4CCOCC4)c4ccccc34)O2)cc1 [3,3-di(4-methoxyphenyl)-6-morpholino-3H-naphtho-[2,1-b]pyran]
ΔE [1]: 51

C1=CC(c2ccccc2)(c2ccc(N3CCOCC3)cc2)Oc2cc(N3CCOCC3)c3ccccc3c21 (stereo not drawn) [3-phenyl-3-(4-morpholinophenyl)-6-morpholino-3H-naphtho[2,1-b]pyran]
ΔE [1]: 53

C1=CC(c2ccccc2)(c2ccc(N3CCCCC3)cc2)Oc2cc(N3CCOCC3)c3ccccc3c21 (stereo not drawn) [Reversacol Ruby, 3-phenyl-3-(4-piperidinophenyl)-6-morpholino-3H-naphtho[2,1-b]pyran]
ΔE ([2]; 0.05% dye, 15% polyethylene wax, qs phenylsilicone oil DC556, UVA 2 mW/cm^2 for two minutes): 37.38
ΔE ([2]; 15% wax + 0.05% dye in Castor oil, UVA 2 mW/cm^2 for 2 minutes, 50 micron film): 26.75
ΔE ([2]; 15% wax + 0.05% dye in Diisostearyl malate, UVA 2 mW/cm^2 for 2 minutes, 50 micron film): 43.12
ΔE ([2]; 15% wax + 0.05% dye in Hydrogenated polyisobutene, UVA 2 mW/cm^2 for 2 minutes, 50 micron film): 18.36
ΔE ([2]; 15% wax + 0.05% dye in Isododecane, UVA 2 mW/cm^2 for 2 minutes, 50 micron film): 27.21
ΔE ([2]; 15% wax + 0.05% dye in Isononyl isononanoate, UVA 2 mW/cm^2 for 2 minutes, 50 micron film): 27.74
ΔE ([2]; 15% wax + 0.05% dye in Octyldodecanol, UVA 2 mW/cm^2 for 2 minutes, 50 micron film): 31.09
ΔE ([2]; 15% wax + 0.05% dye in Tridecyl trimellitate, UVA 2 mW/cm^2 for 2 minutes, 50 micron film): 31.98
ΔE ([2]; 15% wax + 0.05% dye in Triisononanoin, UVA 2 mW/cm^2 for 2 minutes, 50 micron film): 33.70
Initial coloration of the mixture before irradiation [3]: pink
Coloration after irradiation ([3]; UV (sunlight) for 2 minutes): strong orange-red
Dissolution at elevated temperature (60° C.) ([4]; 0.05% by weight dye in Phenyltrimethylsiloxytrisiloxane (20 cSt) DC556 from Dow Corning): Total dissolution
Dissolution at elevated temperature (60° C.) ([4]; 0.05% by weight dye in Polyphenyltrimethylsiloxydimethylsiloxane (1000 cSt) Belsil PDM 1000 from Wacker): Total dissolution
Coloration of the solution of the dye (solvatochromic effect) ([4]; in the phenylsilicones, not for the other oils): pink coloration
Dissolution in the other silicone-based media after cooling to room temperature ([4]; non-phenylated silicone media, room temperature): virtually undissolved
Dissolution at elevated temperature in non-phenylated oils ([4]; non-phenylated silicone oils, elevated temperature): dissolves poorly
Dissolution at elevated temperature in the phenylated oils ([4]; phenylated silicone oils, irrespective of viscosity, elevated temperature): complete
Dissolution in phenylsilicones after cooling to room temperature ([4]; phenylsilicones, room temperature): virtually complete dissolution
ΔE′ of the oil + dye mixture [5, 7]: 12.4093
ΔE′ of the oil + dye mixture ([5]; 0.05% dye in Castor oil): 33.6278
ΔE′ of the oil + dye mixture [5, 8]: 12.9041
ΔE′ of the oil + dye mixture [5, 9]: 6.6920
ΔE′ of the oil + dye mixture ([5]; 0.05% dye in Isododecane): 4.2421
ΔE′ of the oil + dye mixture [5, 10]: 7.7386
ΔE′ of the oil + dye mixture ([5]; 0.05% dye in Octyldodecanol): 37.6049
ΔE′ of the oil + dye mixture [5, 11]: 14.2178
ΔE′ of the oil + dye mixture ([5]; 0.05% dye in Triisononanoin): 12.8122
ΔE [6, 7]: 23.70
ΔE ([6]; 0.05% dye in Castor oil): 19.02
ΔE [6, 8]: 38.79
ΔE [6, 9]: 17.69
ΔE ([6]; 0.05% dye in Isododecane): 19.17
ΔE [6, 10]: 25.47
ΔE ([6]; 0.05% dye in Octyldodecanol): 20.88
ΔE [6, 11]: 13.74
ΔE ([6]; 0.05% dye in Triisononanoin): 21.62
ΔE [1]: 49
